Reference: patent US5190870A, “Method for oxidizing hydrocarbons with a hydroxylase from a methane monooxygenase” (Amoco Corporation, priority 1990, dated 1993)

T1: Methylosinus trichosporium OB3b soluble methane monooxygenase, complete system (hydroxylase, component B, reductase) (Methylosinus trichosporium, UniProt P27353)
T1 sequence (P27353 1-526): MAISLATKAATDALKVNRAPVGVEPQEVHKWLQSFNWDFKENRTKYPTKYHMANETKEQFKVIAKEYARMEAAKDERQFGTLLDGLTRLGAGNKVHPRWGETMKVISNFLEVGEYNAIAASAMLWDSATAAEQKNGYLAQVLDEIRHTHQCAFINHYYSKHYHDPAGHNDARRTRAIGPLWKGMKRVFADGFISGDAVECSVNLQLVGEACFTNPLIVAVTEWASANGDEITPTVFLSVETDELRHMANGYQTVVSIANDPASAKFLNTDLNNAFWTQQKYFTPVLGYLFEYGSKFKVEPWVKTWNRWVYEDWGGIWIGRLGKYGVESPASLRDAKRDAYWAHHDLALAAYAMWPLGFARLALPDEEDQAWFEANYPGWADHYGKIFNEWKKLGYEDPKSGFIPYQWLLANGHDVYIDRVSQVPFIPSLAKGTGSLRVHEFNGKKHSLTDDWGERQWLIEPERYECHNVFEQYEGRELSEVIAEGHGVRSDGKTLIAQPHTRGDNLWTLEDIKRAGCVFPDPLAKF
T1 sequence (P27354 1-394 partner): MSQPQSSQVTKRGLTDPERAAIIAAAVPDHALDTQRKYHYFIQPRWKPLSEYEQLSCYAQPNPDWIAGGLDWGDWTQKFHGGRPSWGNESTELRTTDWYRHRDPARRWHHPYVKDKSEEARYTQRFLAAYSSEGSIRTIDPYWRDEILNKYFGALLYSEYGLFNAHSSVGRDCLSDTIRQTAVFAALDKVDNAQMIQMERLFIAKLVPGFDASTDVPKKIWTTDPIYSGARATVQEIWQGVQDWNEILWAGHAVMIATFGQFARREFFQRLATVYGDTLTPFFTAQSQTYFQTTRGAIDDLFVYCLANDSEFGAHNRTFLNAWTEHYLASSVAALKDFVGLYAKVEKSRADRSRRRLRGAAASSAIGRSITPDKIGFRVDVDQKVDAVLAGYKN
T1 sequence (P27355 1-169 partner): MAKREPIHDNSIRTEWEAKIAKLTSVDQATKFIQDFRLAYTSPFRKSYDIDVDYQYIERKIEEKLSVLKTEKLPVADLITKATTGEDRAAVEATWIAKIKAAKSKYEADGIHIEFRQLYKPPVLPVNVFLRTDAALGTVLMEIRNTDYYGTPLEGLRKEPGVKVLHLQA


Columns and labels:
[1] = target: T1, Methylosinus trichosporium OB3b soluble methane monooxygenase, complete system (hydroxylase, component B, reductase); assay: Polarographic / gas chromatographic assay of the complete (reconstituted) methane monooxygenase; conditions: catalytic cycles per second per molecule
Method: (§1) Unless explicitly stated, the specific activity values reported for the enzyme components are those observed during the hydroxylation reaction in the presence of optimal concentrations of the other components of the methane monooxygenase. The optimal concentrations were determined by varying the concentration of one component relative to fixed concentrations of the other two components. In routine polarographic assays of methane monooxygenase activity, furan is an acceptable substrate with characteristics which facilitate the assay.

[2] = substrate: c1ccoc1; assay: purified protein, by the assay type; conditions: other: complete methane monooxygenase, polarographic assay; pH 7.0; 30.0 °C
Method: as §1

| Molecule | turnover number relative to the hydroxylase [1] [S^-1] | Km [2] [µM] |
| --- | --- | --- |
| c1ccoc1 [furan] | 7.6 | – |
| Methylosinus trichosporium OB3b soluble methane monooxygenase, complete system (hydroxylase, component B, reductase) (Methylosinus trichosporium) (protein) MAISLATKAATDALKVNRAPVGVEPQEVHKWLQSFNWDFKENRTKYPTKYHMANETKEQFKVIAKEYARMEAAKDERQFGTLLDGLTRLGAGNKVHPRWGETMKVISNFLEVGEYNAIAASAMLWDSATAAEQKNGYLAQVLDEIRHTHQCAFINHYYSKHYHDPAGHNDARRTRAIGPLWKGMKRVFADGFISGDAVECSVNLQLVGEACFTNPLIVAVTEWASANGDEITPTVFLSVETDELRHMANGYQTVVSIANDPASAKFLNTDLNNAFWTQQKYFTPVLGYLFEYGSKFKVEPWVKTWNRWVYEDWGGIWIGRLGKYGVESPASLRDAKRDAYWAHHDLALAAYAMWPLGFARLALPDEEDQAWFEANYPGWADHYGKIFNEWKKLGYEDPKSGFIPYQWLLANGHDVYIDRVSQVPFIPSLAKGTGSLRVHEFNGKKHSLTDDWGERQWLIEPERYECHNVFEQYEGRELSEVIAEGHGVRSDGKTLIAQPHTRGDNLWTLEDIKRAGCVFPDPLAKF | – | 20 |
